Reference: PubChem BioAssay AID2060500 (Molecular Pharmacology Branch, DTP, NCI, 2025)
Several values for one entry are separate records, joined by “and”; a condition that tells them apart may be missing. Equal entries are not always repeated.

Test system: 596521-263-R-J1-PDC complex spheroids, viability % of control
Assay: Anticancer human tumor 596521-263-R-J1-PDC patient-derived soft tissue sarcoma cell line growth inhibition [GQUAD]
Conditions: for viability, T/C: stronger effect = lower value; active = viability on the fitted dose curve at most 10% of control; inactive = the rest
Description: DNA G-quadruplex Stabilizer Agents in Combinations in Complex Spheroids
A high-throughput screen of multi-cell type tumor spheroids was designed to identify active combinations of DNA G-quadruplex stabilizer agents and targeted small molecules. Complex spheroids include a stromal component modeled by human endothelial cells (HUVEC) and fibroblasts modeled by human mesenchymal stem cells (MSCs). The concentration ranges selected for each drug and investigational agent were based upon clinically achievable concentrations if the clinical Cmax of the agent was known.
Compounds. The drugs and investigational agents: pidnarulex (CX-5461; NSC782164), APTO-253 (NSC789042), BRACO-19 (NSC847499), peposertib (NSC802822), ceralasertib (NSC780249), elimusertib (NSC800525), camonsertib (NSC841442), AZD-1390 (NSC803789), olaparib (NSC753686), talazoparib (NSC767125), ART-558 (NSC835418), sotorasib (NSC818433), MRTX-1133 (NSC836407), SN-38 (NSC673596), topotecan (NSC609699), etoposide (NSC141540), doxorubicin (NSC123127), gemcitabine (NSC613327), 5-fluorouracil (NSC19893), paclitaxel (NSC125973), vemurafenib (NSC761431), panobinostat (NSC761190), R-306465 (JNJ-16241199; NSC773264), adavosertib (NSC754352), TP-3654 (NSC805149), carboplatin (NSC241240), KSQ-4279 (NSC840948), and staurosporine (NSC755774) were obtained from the National Cancer Institute (NCI) Developmental Therapeutics Program Chemical Repository (34). The FDA-approved anticancer drug set is available from the NCI Developmental Therapeutics Program. […] The stock solutions were prepared in dimethyl sulfoxide (DMSO, Sigma-Aldrich, St. Louis, MO, cat. D2650) at 800-fold the tested concentration and stored at -70 degrees C prior to their use. All drugs and investigational agents were tested over a range starting from a high concentration at or near the clinical Cmax and decreasing in half-log increments. If the clinical Cmax for an agent had not been determined, the highest concentration tested was 10 microM.
2.3 Cell Culture. All cells were maintained in an incubator at 37 degrees C and 5% CO2 with 95% humidity. The PDC lines were cultured according to standard operating procedures established by the NCI PDMR. All PDCs were thawed and cultured in Matrigel-coated flasks prepared with a working solution of 1X Ham's F-12 nutrient mix, without supplementation (Invitrogen, cat. 11765054), 100 U/mL penicillin-streptomycin (Invitrogen, cat. 15140122), and 2.5% Matrigel (Corning Inc., cat. 354248) for the first three passages. The 857933-349-R-J2-PDC line was cultured in 6C/Colon 1B media, which includes advanced DMEM/F-12 (Thermo Fisher Scientific, cat. 12634028), 10 mM HEPES (Thermo Fisher Scientific, cat. 15630080), 1X GlutaMAX supplement (Thermo Fisher Scientific, cat. 35050061), 0.1 mg/mL primocin (InvivoGen, cat. ant-pm-2), 10% defined fetal bovine serum, heat inactivated (HyClone Laboratories Inc., cat. SH30070.03HI), 50% L-WRN conditioned media (ATCC, cat. CRL-3276), 1.25 mM N-Acetyl-L-cysteine (Sigma-Aldrich, cat. A9165), 10 mM nicotinamide (Sigma-Aldrich, cat. N0636), 1X B-27 supplement (Thermo Fisher Scientific, cat. 17504044), 1X N-2 supplement (Thermo Fisher Scientific, cat. 17502048), 10 microM Y-27632 dihydrochloride (Tocris Bioscience, cat. 1254), and 50 ng/mL human EGF recombinant protein (Thermo Fisher Scientific, cat. PHG0311). The 485176-168-R4-J1-PDC line was cultured in Panc media, which includes all 6C/Colon 1B media components plus 100 ng/mL human FGF-10 (Thermo Fisher Scientific, cat. 100-26), 500 nM SB-431542 (Selleckchem, cat. S1067), and gastrin (Tocris, cat. 3006).
[…]
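Also: spheroids exposed to drugs for 7 days before viability reading.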

O=C(c1cc(Cc2n[nH]c(=O)c3ccccc23)ccc1F)N1CCN(C(=O)C2CC2)CC1 + Cc1cnc(CNC(=O)c2c(=O)c3ccc(N4CCCN(C)CC4)nc3n3c2sc2ccccc23)cn1
> 10000 nM: IC50 (curve of first compound, second compound 0.0316 µM) | IC50 (curve of first compound, second compound 0.1 µM) | IC50 (curve of first compound, second compound 0.316 µM) | IC50 (curve of first compound, second compound 1 µM)
inactive: viability, T/C (second compound 0.0316 µM, first compound 0.0316 µM) 92% | viability, T/C (second compound 0.0316 µM, first compound 0.1 µM) 91% | viability, T/C (second compound 0.0316 µM, first compound 0.316 µM) 96% | viability, T/C (second compound 0.0316 µM, first compound 1 µM) 80.2% | viability, T/C (second compound 0.0316 µM, first compound 3.16 µM) 81.4% | viability, T/C (second compound 0.0316 µM, first compound 10 µM) 68.9% | viability, T/C (second compound 0.1 µM, first compound 0.0316 µM) 86.3% | viability, T/C (second compound 0.1 µM, first compound 0.1 µM) 80.6% | viability, T/C (second compound 0.1 µM, first compound 0.316 µM) 82.8% | viability, T/C (second compound 0.1 µM, first compound 1 µM) 70.3% | viability, T/C (second compound 0.1 µM, first compound 3.16 µM) 71.4% | viability, T/C (second compound 0.1 µM, first compound 10 µM) 56.4% | viability, T/C (second compound 0.316 µM, first compound 0.0316 µM) 71.8% | viability, T/C (second compound 0.316 µM, first compound 0.1 µM) 77.9% | viability, T/C (second compound 0.316 µM, first compound 0.316 µM) 73.4% | viability, T/C (second compound 0.316 µM, first compound 1 µM) 78.1% | viability, T/C (second compound 0.316 µM, first compound 3.16 µM) 73.3% | viability, T/C (second compound 0.316 µM, first compound 10 µM) 58.1% | viability, T/C (second compound 1 µM, first compound 0.0316 µM) 68.2% | viability, T/C (second compound 1 µM, first compound 0.1 µM) 64.2% | viability, T/C (second compound 1 µM, first compound 0.316 µM) 59.4% | viability, T/C (second compound 1 µM, first compound 1 µM) 64.3% | viability, T/C (second compound 1 µM, first compound 3.16 µM) 60.9% | viability, T/C (second compound 1 µM, first compound 10 µM) 54.1% | viability, T/C (second compound 3.16 µM, first compound 0.0316 µM) 47.9% | viability, T/C (second compound 3.16 µM, first compound 0.1 µM) 50.1% | viability, T/C (second compound 3.16 µM, first compound 0.316 µM) 52.2% | viability, T/C (second compound 3.16 µM, first compound 1 µM) 56.8% | viability, T/C (second compound 3.16 µM, first compound 3.16 µM) 52.3% | viability, T/C (second compound 3.16 µM, first compound 10 µM) 48.8% | viability, T/C (second compound 10 µM, first compound 0.0316 µM) 46.1% | viability, T/C (second compound 10 µM, first compound 0.1 µM) 48.4% | viability, T/C (second compound 10 µM, first compound 0.316 µM) 47.4% | viability, T/C (second compound 10 µM, first compound 1 µM) 46.6% | viability, T/C (second compound 10 µM, first compound 3.16 µM) 50.9% | viability, T/C (second compound 10 µM, first compound 10 µM) 41.8%
< 31.6 nM: IC50 (curve of first compound, second compound 3.16 µM) | IC50 (curve of first compound, second compound 10 µM)

CN(C)c1ccc(Nc2c3ccc(NC(=O)CCN4CCCC4)cc3nc3cc(NC(=O)CCN4CCCC4)ccc23)cc1
inactive: viability, T/C (compound 0.0316 µM) 102% [middle of 12 runs] | viability, T/C (compound 0.1 µM) 105% [middle of 12 runs] | viability, T/C (compound 0.316 µM) 104% [middle of 12 runs] | viability, T/C (compound 1 µM) 105% [middle of 12 runs] | viability, T/C (compound 3.16 µM) 95.9% [middle of 12 runs] | viability, T/C (compound 10 µM) 67% [middle of 12 runs]
> 10000 nM: IC50 (compound alone, run of 04/22/2024)

CCCS(=O)(=O)Nc1ccc(F)c(C(=O)c2c[nH]c3ncc(-c4ccc(Cl)cc4)cc23)c1F
inactive: viability, T/C (compound 0.0316 µM) 105% and 100% and 95.2% | viability, T/C (compound 0.1 µM) 81.5% and 87% and 92.4% | viability, T/C (compound 0.316 µM) 51.8% and 93% and 109% | viability, T/C (compound 1 µM) 43% and 88.8% and 110% | viability, T/C (compound 3.16 µM) 40% and 64.2% and 82.7% | viability, T/C (compound 10 µM) 34.2% and 30.7% and 36.3%

CC1COCCN1c1cc(-c2ccnn2C)c2ccnc(-c3ccn[nH]3)c2n1 (stereo not drawn)
inactive: viability, T/C (compound 0.0316 µM) 78.3% and 73.2% and 70.2% | viability, T/C (compound 0.1 µM) 59.2% and 55.7% and 62.7% | viability, T/C (compound 0.316 µM) 57.2% and 47.1% and 50.2% | viability, T/C (compound 1 µM) 43.9% and 42.6% and 44.5% | viability, T/C (compound 3.16 µM) 30.3% and 34% and 31.6% | viability, T/C (compound 10 µM) 24.4% (2×) and 23.9%
452 nM and 275 nM and 412 nM: IC50 (curve of compound)

C=CCn1c(=O)c2cnc(Nc3ccc(N4CCN(C)CC4)cc3)nc2n1-c1cccc(C(C)(C)O)n1
inactive: viability, T/C (compound 0.0316 µM) 99.8% and 97.8% and 103% | viability, T/C (compound 0.1 µM) 92% and 80.4% and 93.1% | viability, T/C (compound 0.316 µM) 96.9% and 51.6% and 61.3% | viability, T/C (compound 1 µM) 92.4% and 41% and 41.4% | viability, T/C (compound 3.16 µM) 67.7% and 34.9% and 37% | viability, T/C (compound 10 µM) 33.8% and 38.8% and 32.9%
